How the values were obtained:
Plasmodium falciparum [1] = test: MMV: Inhibition of Plasmodium falciparum 3D7 at 5uM compound concentration.; type: functional
Trypanosoma cruzi = test: MMV: Inhibition of Trypanosoma cruzi (Tulahuen C4 LacZ) (Chagas in vitro).; type: functional, organism-based
[2] = system: Trypanosoma brucei brucei; test: MMV: Inhibition of Trypanosoma brucei brucei (Squib 427) (HAT in vitro).; type: functional, organism-based
[3] = MMV: Cytotoxicity against human fibroblasts (MRC-5) cells.; conditions: MRC-5 cells (human fibroblasts)
Plasmodium falciparum [4] = test: MMV: Inhibition of Plasmodium falciparum 3D7 (EC50).; type: functional, organism-based
Leishmania infantum = test: MMV: Inhibition of Leishmania infantum (MHOM/MA/BE/67) in vitro.; type: functional, organism-based
[5] = system: Trypanosoma brucei rhodesiense; test: MMV: Inhibition of Trypanosoma brucei rhodesiense (STIB 900) (HAT in vitro).; type: functional, organism-based

SMILES | inhibition at 5 µM (Plasmodium falciparum [1]) [%] | IC50 (Trypanosoma cruzi) [µM] | IC50 [2] [µM] | IC50 [3] [µM] | EC50 (Plasmodium falciparum [4]) [µM] | IC50 (Leishmania infantum) [µM] | IC50 [5] [µM]
O=C(NCC1Cc2cccc(-c3ccncc3)c2O1)c1csc2c1CCCC2 (stereo not given) | 87 | 5.16 | 16.5 | 28.5 | 1.72 | > 32 | 13.9
Cc1nc2ccccc2c(O)c1CC=C(Cl)Cl | 89 | 1.88 | > 32 | > 32 | 0.836 | > 32 | > 32
c1ccc(-c2ccc(-c3nc4ccccc4[nH]3)cc2)cc1 | 52 | > 32 | > 32 | > 32 | 1.07 | > 32 | > 32
CCOc1ccc(CN2CCN(CC(O)COc3ccc(OCC(O)CN4CCN(Cc5ccc(OCC)cc5)CC4)cc3)CC2)cc1 (stereo not given) | 97 | 2.54 | 3.52 | 10.7 | 1.2 | 2.52 | 0.964
Cc1ccc(-c2cc(C(=O)Nc3ccc(S(=O)(=O)N4CCCCC4)cc3)[nH]n2)c(O)c1 | 94 | > 32 | > 32 | > 32 | 0.535 | > 32 | > 32
Cc1ccc2nc(C)cc(Nc3cccc(C(F)(F)F)c3)c2c1 | 98 | 5.96 | 4.12 | 28.9 | 1.17 | 3.06 | 3.86
CCOc1cc(Cl)c(C(C)NC(=O)c2ccccc2)cc1OCC (stereo not given) | 96 | > 32 | > 32 | > 32 | 1.37 | > 32 | > 32
CC1CC(C)CN(C(=O)c2ccc(Cl)cc2Cl)C1 (stereo not given) | 95 | 24.7 | > 32 | > 32 | 0.756 | 17.3 | > 32
O=C(Nc1cccc(-c2nc3ccccc3[nH]2)c1)c1cccc(NC(=O)c2ccco2)c1 | 95 | > 32 | > 32 | > 32 | 0.745 | > 32 | > 32
CCOc1cc(Br)c(C(C)NC(=O)c2cccc(OC)c2)cc1OCC (stereo not given) | 96 | > 32 | > 32 | > 32 | 1.43 | > 32 | > 32
CC(C)=CCN1CCC(C(=O)Nc2ccc(-c3nc4ccccc4[nH]3)cc2)CC1 | 96 | 23 | 5.04 | > 32 | 1.16 | > 32 | 2.34
FC(F)(F)c1cccc(CNC2CCN(CCc3ccccc3)CC2)c1 | 96 | 15.7 | 2.73 | > 32 | 0.685 | 16.6 | 1.31
O=C(Nc1ccc(-c2nc3cc4ccccc4cc3[nH]2)cc1)c1cccc(Br)c1 | 93 | > 32 | > 32 | > 32 | 0.45 | > 32 | > 32
CCn1c2c(c(=N)c3c1CCC3)CCCC2 | 77 | 9.02 | > 32 | 32 | 0.695 | > 32 | > 32
CCN1CCN(Cc2ccc(NC(=O)c3cc4ccc5cccnc5c4[nH]3)cc2)CC1 | 70 | 8 | 3.78 | 8.47 | 0.361 | 6.35 | 0.928
C=C(C)CCC(C)N1CCC(N2CCC(C(=O)NCCc3ccccc3)CC2)CC1 (stereo not given) | 96 | 18.2 | 17.7 | 19 | 1.75 | > 32 | 7.79
CCOC(=O)c1cnc2c(C)cc(C)cc2c1Nc1ccc(OC)c(OC)c1 | 96 | > 32 | > 32 | > 32 | 0.232 | > 32 | > 32
Cc1cc(C)c2nc(N3CCC(C(=O)NCCCN4CCC(N5CCCCC5)CC4)CC3)sc2c1 | 98 | 0.85 | 0.22 | 4.25 | 0.697 | 4.06 | < 0.125
COc1ccc(CCN2CCC(CN(C)Cc3cnn(-c4ccccc4)c3)CC2)cc1 | 96 | 6.43 | 0.86 | 18.6 | 1.43 | 12 | 0.254
COc1cc(CNCCc2ccc(Cl)cc2)cc(OC)c1O | 97 | > 32 | 15 | > 32 | 1.79 | > 32 | 12.1
COc1ccc(C2NCCc3c2[nH]c2ccccc32)cc1CN1CCN(c2ccc(F)cc2)CC1 (stereo not given) | 97 | 2.75 | 2.78 | 3.94 | 0.934 | 1.19 | 0.246
CCOc1ccc(Nc2c3ccccc3nc3ccccc23)cc1 | 97 | 1.25 | 3.45 | 8.44 | 1.06 | 1.59 | 0.976
O=C(CCc1ccco1)NC1CCN(CC2(c3ccc(Cl)cc3)CCC2)CC1 | 96 | 16.6 | 2.89 | > 32 | 1.14 | 19 | 1.01
CCOC(=O)c1cnc2ccc(Cl)cc2c1NCCCN(C)C | 98 | 16.2 | 7.4 | > 32 | 1.19 | 16.1 | 4.19
CC(Oc1ccc(NC(=O)c2cccs2)cc1)C(=O)c1ccc(Cl)cc1 (stereo not given) | 87 | 15.4 | 15.5 | > 32 | 1.03 | > 32 | 10.3
COc1ccc(/C=C2/SC(=Nc3ccccc3)NC2=O)cc1 | 71 | > 32 | > 32 | 11.5 | 0.551 | > 32 | 16.3
O=[N+]([O-])c1ccc(C=NNc2nc3ccccc3[nH]2)cc1 | 99 | > 32 | > 32 | > 32 | 0.142 | 16.2 | > 32
COc1ccc(CNC(=O)c2cc3c(=O)n4ccccc4nc3n(CCc3ccccc3)c2=N)cc1 | 95 | 4.91 | 11.9 | 14.7 | 1.06 | 13.6 | 3.15
COc1ccc(C(=O)Nc2nonc2-c2ccc(OC)c(OC)c2)cc1Cl | 92 | > 32 | > 32 | > 32 | 0.516 | > 32 | > 32
O=C(Nc1ccc(CN2CCOCC2)cc1)c1ccc(-c2cc(Cl)ccc2Cl)o1 | 97 | 12.1 | 14.9 | 17.4 | 1.95 | 25.4 | 4.44
